This is an account of results in patent US8936941B2, “Compositions useful for cancer detection and treatment, a cancer stem cell model, and methods of production and use thereof” (priority 2008, dated 2015).

The subject of test [1] is PICSCs. The experiment in a line: Growth and survival of PICSCs after drug treatment. Format: cell-based, mouse. The procedure:
The PICSCs cells were treated with 100 μM drug (suprapharmacological dose) for 48 hours, and their growth and survival were evaluated. […] Moreover, the in vitro testing strategies allows for a mechanistic study of such compounds.

The test system of the next test is PICSC tumor xenografts. The experiment in a line: PICSC generated isograft tumor growth in mice. Format: in vivo. Conditions: mouse, in vivo. The procedure: To determine whether targeted DCAMKL-1 downregulation and/or Notch inhibition affected […] generated isograft tumor growth, mice were treated with siRNA to DCAMKL-1 or the Notch inhibitor DAPT. After the tumors were allowed to develop (15 days), siRNA was injected a total of 5 times at an interval of 3 days as described earlier.

Test [2] deals with PICSCs. The experiment in a line: LIVE/DEAD Viability/Cytotoxicity Assay on PICSCs. Format: cell-based, mouse. The conditions noted are these: 48 hours, single agent. Here is the method: This Example is directed to stem cell assays utilizing PICSCs generated in accordance with the presently disclosed and claimed inventive concept(s). The PICSCs were generated as described herein above (i.e., transformation of NIH-3T3 cells with RBM3 gene, followed by transplantation into a nude mouse, then sorting of cells obtained from generated tumors utilizing DCAMKL-1).
The PICSCs were exposed to various compounds/anti-cancer agents, and cell viability assays were then performed using the LIVE/DEAD® Viability/Cytotoxicity Assay from Molecular Probes/Invitrogen (Eugene, Oreg.). The LIVE/DEAD® Viability/Cytotoxicity Assay is an assay that provides a two-color fluorescence cell viability that is based on the simultaneous determination of both live and dead cells.
Briefly, PICSCs cells were grown in a 96 well microtitre plate ([…], Newton, N.C.) to about 40% confluency and treated with anti-cancer agents/compounds for 48 hours. Subsequently, chromogenic substrates Calcein AM and Ethidium homodimer-1 (EthD-1) was added to the cells. Calcein AM is well retained within the live cells, producing uniform green fluorescence in live cells (measured at 515 nM). EthD-1 enters cells with damaged membranes and undergoes an enhancement of fluorescence upon binding to nucleic acids, thereby producing a bright red fluorescence in dead cells (measured at 617 nM). The fluorescence measurement was carried out using a microtitre plate reader (Synergy HT, BIO-TEK, Vinooski, Vt.).
In FIGS. 70-84, the PICSCs were treated with increasing concentrations of various compounds or combinations of compounds for 48 hours, and the data presented therein is represented as a % Dead/Live cells ratio following said treatment. […] Values in each figure are given as average±Standard Error Mean, and asterisks denote statistically significant differences (*p<0.01) compared with control.

The test system of the next test is HCT116 tumor xenografts. The experiment in a line: HCT116 tumor xenograft model in athymic nude mice, intratumoral treatment. Format: in vivo. The conditions noted are these: HCT 116-induced tumor xenograft, via induction of apoptosis. From the text: Real-time reverse transcription-PCR analyses. Total RNA isolated either from cells or from human colon cancer cell tumor xenograft samples was subjected to reverse transcription with Superscript™ II RNase H—Reverse Transcriptase and random hexanucleotide primers (Invitrogen, Carlsbad, Calif.). The cDNA was subsequently used to perform Real-time PCR by SYBR chemistry (SYBR® Green I; Molecular Probes) for specific transcripts using gene specific primers and Jumpstart Taq DNA polymerase (Sigma-Aldrich, St. Louis, Mo.). […] The changes in mRNA were expressed as fold change relative to control with ±SEM value.
miRNA analysis. Total miRNA was isolated using mirVana™ miRNA isolation kit (Ambion Inc.). Total miRNA isolated either from cells or from human colon cancer cell tumor xenograft samples were subjected to reverse transcription with Superscript™ II RNase H—Reverse Transcriptase and random hexanucleotide primers (Invitrogen, Carlsbad, Calif.). The cDNA was subsequently used to perform Real-time PCR by SYBR chemistry (SYBR® Green I; Molecular Probes) for pri-let-7a transcript using specific primers and Jumpstart Taq DNA polymerase (Sigma-Aldrich, St. Louis, Mo.). […] The changes in pri-miRNA were expressed as fold change relative to control with ±SEM value. Primers used are: […]
Western Blot analysis. HCT116 and SW480 cells were cultured in a 6 well plates to 40% confluency and were transfected with si-DCAMKL-1 or si-Scr for 72 h. Cells or the tumor xenograft samples were lysed and the concentration of protein was determined by BCA protein assay kit (Pierce Biotechnology Inc., Rockford, Ill.). […] The membrane was blocked in 5% non-fat dry milk for 1 h and probed overnight with a rabbit anti-DCAMKL-1 antibody (Abcam Inc., Cambridge, Mass.) or with rabbit anti-c-Myc antibody (Santa Cruz). Subsequently, the membrane was incubated with anti-rabbit or anti-goat IgG horseradish peroxidase-conjugated antibodies (Amersham-Pharmacia) for 1 h at room temperature. The 82 kDa DCAMKL-1 and 49 kDa c-Myc proteins were detected using ECL™ Western Blotting detection reagents (Amersham-Pharmacia). Actin (43 kDa), used as loading control was identified using a goat polyclonal IgG (Santa Cruz Biotechnology Inc., Santa Cruz, Calif.).
Immunohistochemistry. Heat Induced Epitope Retrieval was performed on 4 μm formalin-fixed paraffin-embedded sections utilizing a pressurized Decloaking Chamber (Biocare Medical) in citrate buffer (pH 6.0) at 99° C. for 18 min. (a) Brightfield: Slides were incubated in 3% hydrogen peroxide, then normal serum and BSA at room temperature for 20 min. After incubation with primary antibody [DCAMKL-1 C-terminal (Abcam), anti-c-Myc (Santa Cruz Biotechnologies), L-FABP (Santa Cruz Biotechnologies)], the slides were incubated in peroxidase-conjugated EnVision™+polymer detection kit (DAKO). Slides were developed with Diaminobenzidine (Sigma). (b) Fluorescence: Slides were first incubated in Image-iT FX signal enhancer (Invitrogen), followed by normal serum and BSA at room temperature for 20 min.
Xenograft tumor model. (a) Liposomal preparation: siRNA was administered into the xenografts after incorporation into 1,2-Dioleoyl-sn-Glycero-3-Phosphocholine (DOPC) (Avanti Polar Lipids, Alabaster, Ala.). DOPC and siRNA were mixed in the presence of excess tertiary butanol at a ratio of 1:10 (w/w) (siRNA/DOPC). Tween 20 (Sigma-Aldrich) was added to the mixture at a ratio of 1:19 Tween 20:siRNA/DOPC. The mixture was vortexed and frozen in an acetone/dry ice bath and lyophilized. Before administration, the siRNA preparation was reconstituted in 0.9% sterile saline and injected at a dose of 50 μl (5 μM) per injection. (b) Tumor therapy: Female athymic nude mice (NCr-nu) were purchased from the National Cancer Institute-Frederick Cancer Research and Development Center (Frederick, Md.) and housed in specific pathogen-free conditions.

In test [3] the test system is Pdx1-Cre; LSL-KRAS^G12D; p53^lox/+ mouse model of pancreatic neoplasia. The conditions noted are these: inhibition of Notch signaling; cited from earlier work.
Another test deals with HCV subgenomic replicon. The experiment in a line: HCV replication in GS5 cells (Huh7.5 with HCV subgenomic replicon). Conditions: disruption of microtubules. The test is classed as cell-based, hepatitis C virus. The procedure: FIG. 61 illustrates that DCAMKL-1 is required for the HCV replication. A. siRNA against DCAMKL-1 (Si-DCAMKL1, 50 nM and 100 nM) or scrambled siRNA (SCR, 100 nM) were transfected into GS5 cells. Total RNAs were extracted and subjected to real-time quantitative PCR. The levels of HCV and DCAMKL-1 RNAs were considered arbitrary as one unit in untransfected GS5 cells (Cont). Actin mRNA in each sample was used as internal control for PCR. B. Western blot analysis of siRNAs tranfected and untransfected samples as indicated.
Induction of putative stem cell/pluripotency factors by HCV: Normal adult hepatocytes are fully differentiated cells and lack expression of pluripotency factors. However, these cells can be induced to proliferate rapidly after partial hepatectomy and can also be reprogrammed into stem-like cells by forced expression of a cocktail of transcription factors. Thus, the impact of HCV on expression pattern of stem/progenitor cell markers was investigated in GS5 cells, which are derived from hepatoma cell line (Huh7.5) and support constitutive replication of a subgenomic HCV replicon under G418 selection. The replicon expresses HCV nonstructural proteins NS3 through NS5B of the HCV-1a strain and green florescent protein (GFP)-NS5A chimera. Total lysates from parent Huh7.5 and GS5 cells were subjected to Western blot analysis (FIG. 59).
Putative intestinal stem cell marker DCAMKL1 is required for the HCV replication: The eccentric, punctate staining of HCV replication complexes consisting of most of the nonstructural proteins and cellular factors has been a puzzling question. It is known that these replication complexes associate with microtubules in order to replicate the HCV RNA. The DCAMKL1 protein, which binds and polymerizes tubulin into microtubule filaments, is considered as a putative marker for quiescent stem cells in the intestine, and its expression is increased in cancer stem cells. During confocal microscopy, most DCAMKL1 localization was consistently observed in the area containing replication complexes (indicated by NS5A-GFP) and high concentration of microtubules (FIG. 60). The perinuclear co-localization of DCAMKL1 with the NS5A-GFP (indicated by yellow stain) was also observed.
A general note: In antiviral work, replicon cells carry a viral genome segment that copies itself.

SMILES strings stand for the structures. Entries after “also recorded” stand apart in the source; their conditions may differ.

Take `O=C1C(=Cc2ccccc2F)CNCC1=Cc1ccccc1F` [EF24, 3,5-bis(2-fluorobenzylidene)piperidin-4-one]: in the test with PICSCs [1] (1 μM), the “neurite formation, cell growth and cell death of PICSCs” value is “inhibited neurite formation, suppressed cell growth and induced cell death”. The anti-CSC growth properties entry in the test on PICSC tumor xenografts is given as “potent anti-CSC growth properties”. Moreover, the “PICSC cell death (% Dead/Live cells ratio)” value with PICSCs [2] was “increasing levels of PICSC cell death”. The tumor xenograft growth result in the test on HCT116 tumor xenografts was “significantly inhibited”. Take `OO` [hydrogen peroxide]: in the test with PICSCs [2], the “PICSC cell death (% Dead/Live cells ratio)” value is recorded as “complete cell death”. `O=S1(=O)N[C@@]2(CN1CC(F)(F)F)[C@@H]1CC[C@H]2Cc2ccc(/C=C/CN3CCC(C(F)(F)F)CC3)cc2C1` [MRK-003]: the tumor development result in test [3] is “completely inhibited tumor development; also recorded: completely blocked tumor development”. For `CCc1c2c(nc3ccc(OC(=O)N4CCC(N5CCCCC5)CC4)cc13)-c1cc3c(c(=O)n1C2)COC(=O)[C@]3(O)CC` [CPT-11, Irinotecan], the “growth and survival of PICSCs” value with PICSCs [1] (100 μM drug, 48 hours) was “no significant effect”. Besides, in the test on PICSCs [2], the “PICSC cell death (% Dead/Live cells ratio)” value is “no cell death”. As for `C[C@H](NC(=O)Cc1cc(F)cc(F)c1)C(=O)N[C@H](C(=O)OC(C)(C)C)c1ccccc1` [DAPT], the anti-CSC growth properties entry in the test with PICSC tumor xenografts is “potent anti-CSC growth properties”. The “PICSC cell death (% Dead/Live cells ratio)” value with PICSCs [2] is “increasing levels of PICSC cell death”. Turning to `Nc1ccn([C@@H]2O[C@H](CO)[C@@H](O)C2(F)F)c(=O)n1` [Gemcitabine], in the test with PICSCs [2], the “PICSC cell death (% Dead/Live cells ratio)” value is “significant increase in PICSC cell death”. For `CC[C@]1(O)C[C@@H]2CN(CCc3c([nH]c4ccccc34)[C@@](C(=O)OC)(c3cc4c(cc3OC)N(C)[C@H]3[C@@](O)(C(=O)OC)[C@H](OC(C)=O)[C@]5(CC)C=CCN6CC[C@]43[C@@H]65)C2)C1` [vinblastin, reference compound], the HCV replication result in the test with HCV subgenomic replicon was “inhibition”.

`COc1cc(/C=C/C(=O)CC(=O)/C=C/c2ccc(O)c(OC)c2)ccc1O` [curcumin]: the “neurite formation, cell growth and cell death of PICSCs” value in the test with PICSCs [1] (30 μM) is “inhibited neurite formation, suppressed cell growth and induced cell death”. Regarding `N.N.[Cl][Pt][Cl]` [Cisplatin], in the test with PICSCs [2], the “PICSC cell death (% Dead/Live cells ratio)” value is recorded as “increasing levels of PICSC cell death”.
